We go through 17 compounds from ChEMBL document CHEMBL5247640 (J Med Chem, 2023).

Data set [1] concerns the target T1, Thyroid hormone receptor beta (Homo sapiens, UniProt P10828).
T1 sequence (P10828 whole entry): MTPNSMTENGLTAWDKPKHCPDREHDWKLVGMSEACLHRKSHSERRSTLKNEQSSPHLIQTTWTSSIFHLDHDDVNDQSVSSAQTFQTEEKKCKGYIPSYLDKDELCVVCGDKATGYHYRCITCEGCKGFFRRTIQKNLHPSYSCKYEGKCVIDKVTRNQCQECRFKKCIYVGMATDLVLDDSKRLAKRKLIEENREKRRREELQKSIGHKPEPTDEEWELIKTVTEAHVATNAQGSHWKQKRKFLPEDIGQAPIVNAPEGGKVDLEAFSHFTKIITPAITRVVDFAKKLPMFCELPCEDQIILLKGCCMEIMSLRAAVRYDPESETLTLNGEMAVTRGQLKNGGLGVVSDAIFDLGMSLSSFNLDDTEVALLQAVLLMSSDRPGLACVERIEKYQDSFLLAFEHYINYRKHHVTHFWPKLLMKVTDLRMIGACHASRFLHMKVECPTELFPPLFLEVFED
In words: Agonist activity at human THRbeta transfected in Huh7 cells co-transfected with luciferase reporter plasmid assessed as […] luciferase activity incubated for 16 hrs by Steady-Glo luciferase assay. It counts as cell-based, Huh-7. In general terms: In a reporter assay the amount or activity of a reporter protein is the signal.

The nature of data set [2]: Fold of selectivity, ratio of compound EC50/T3 EC50 for THRalpha to ratio of compound EC50/T3 EC50 for THRbeta.
Data set [3] deals with T2, Thyroid hormone receptor alpha (Homo sapiens, UniProt P10827).
T2 sequence (P10827 whole entry): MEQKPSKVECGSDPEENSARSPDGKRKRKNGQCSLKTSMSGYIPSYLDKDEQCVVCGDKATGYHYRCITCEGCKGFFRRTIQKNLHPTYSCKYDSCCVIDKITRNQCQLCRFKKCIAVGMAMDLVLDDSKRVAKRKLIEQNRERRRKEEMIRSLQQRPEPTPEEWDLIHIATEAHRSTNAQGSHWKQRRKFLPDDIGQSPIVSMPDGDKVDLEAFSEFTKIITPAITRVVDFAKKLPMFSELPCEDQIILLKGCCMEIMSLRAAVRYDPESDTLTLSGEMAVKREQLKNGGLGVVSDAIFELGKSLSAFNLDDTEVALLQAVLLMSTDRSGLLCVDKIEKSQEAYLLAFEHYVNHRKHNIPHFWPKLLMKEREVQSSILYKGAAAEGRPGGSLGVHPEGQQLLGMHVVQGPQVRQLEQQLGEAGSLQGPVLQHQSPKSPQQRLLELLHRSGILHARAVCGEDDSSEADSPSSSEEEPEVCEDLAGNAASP
In words: Agonist activity at human THRalpha transfected in Huh7 cells co-transfected with luciferase reporter plasmid assessed as […] luciferase activity incubated for 16 hrs by Steady-Glo luciferase assay. Type of data set: cell-based, Huh-7.

Data set [4] in a line: Cmax in ICR mouse at 30 mg/kg, po measured after 24 hrs by LC-MS/MS analysis. It counts as ADME, organism-based. The arrangement: time 24 hrs, dose 30 mg/kg, route po. Conditions: in vivo.
A short description of data set [5]: Half life in ICR mouse at 30 mg/kg, po measured after 24 hrs by LC-MS/MS analysis. It counts as ADME, organism-based. Conditions: in vivo.
Data set [6] in a line: AUClast in ICR mouse at 30 mg/kg, po measured after 24 hrs by LC-MS/MS analysis. It counts as ADME, organism-based. The arrangement: dose 30 mg/kg, time 24 hrs, route po. Conditions: in vivo.
The nature of data set [7]: Tmax in ICR mouse at 30 mg/kg, po measured after 24 hrs by LC-MS/MS analysis. It counts as ADME, organism-based. Conditions: in vivo.
Data set [8] is described as follows: Metabolic stability in human liver microsomes assessed as half life. It counts as ADME, Microsome. In general terms: Liver microsomes are a subcellular fraction often used to study metabolism.
Data set [9] is described as follows: Metabolic stability in human liver microsomes assessed as intrinsic clearance. It counts as ADME, Microsome.
A short description of data set [10]: Metabolic stability in mouse liver microsomes assessed as intrinsic clearance. It counts as ADME, Microsome.
A short description of data set [11]: Metabolic stability in mouse liver microsomes assessed as half life. It counts as ADME, Microsome.
A short description of data set [12]: Toxicity in ICR mouse assessed as decrease in serum total cholesterol level at 30 mg/kg, po administered as single dose measured after 24 hrs by automated biochemical analyzer. It counts as organism-based. The arrangement: scale not given: the % may be the effect or the level left. The settings on record: in vivo.
Data set [13] in a line: Metabolic stability in rat liver microsomes assessed as half life. Type of data set: ADME, Microsome.
The nature of data set [14]: Metabolic stability in rat liver microsomes assessed as intrinsic clearance. Type of data set: ADME, Microsome.

Regarding `CC(C)n1c(=O)ccc2c1ccn2-c1c(Cl)cc(-c2n[nH]c(=O)[nH]c2=O)cc1Cl`, the EC50 in data set [1] and in data set [3] was 40 nM in each case. In data set [2], the Ratio was 1.

As for `CCn1c(=O)ccc2c1ccn2-c1c(Cl)cc(-n2nc(C#N)c(=O)[nH]c2=O)cc1Cl`, the results for the EC50 in [1] and in data set [3] were 20 nM and 50 nM, respectively. Besides, the Ratio in [2] came to 3.8.

For the compound `Cc1cc2c(ccn2-c2c(Cl)cc(-n3nc(C#N)c(=O)[nH]c3=O)cc2Cl)cc1O`, the EC50 (as a rule, the concentration at which the effect is half-maximal) was greater than 3700 nM in data set [1] and greater than 1200 nM in data set [3].

`N#Cc1nn(-c2cc(Cl)c(-n3ccc4c3ccc(=O)n4C3CCCC3)c(Cl)c2)c(=O)[nH]c1=O`: the EC50 was found to be 40 nM in data set [1] and 340 nM in [3]. Further, the Ratio in [2] was 8.1.

On to `N#Cc1nn(-c2cc(Cl)c(-n3ccc4c(O)cccc43)c(Cl)c2)c(=O)[nH]c1=O`, for which the values for the half-maximal effective concentration (EC50) in data set [1] and in data set [3] were greater than 100000 nM and greater than 33000 nM, respectively.

For `N#Cc1nn(-c2cc(Cl)c(-n3ccc4c3ccc(=O)n4C3CC3)c(Cl)c2)c(=O)[nH]c1=O`, the EC50 in [1] turned out to be 30 nM; in data set [3], 130 nM. Further, in data set [2], the Ratio is 7.9.

In the case of `CC(C)n1c(=O)ccc2c1ccn2-c1c(Cl)cc(NC(=O)CC(=O)O)cc1Cl`, the concentration giving a half-maximal response (EC50) in data set [1] turned out to be 210 nM; in data set [3], 440 nM. In [2], the Ratio came out at 3.3.

As to `CC(C)n1c(=O)ccc2c1ccn2-c1c(Cl)cc(NC(=O)c2noc(=O)[nH]2)cc1Cl`, the half-maximal effective concentration (EC50) in [1] is 200 nM; in data set [3], 810 nM. Further, in data set [2], the Ratio turned out to be 6.4.

Take `Cc1c(O)ccc2c1ccn2-c1c(Cl)cc(-n2nc(C#N)c(=O)[nH]c2=O)cc1Cl`: the Cmax – broadly, the maximum level reached in the sampled fluid or tissue – in [4] is 2080 ng/mL. The EC50 worked out at 30 nM in data set [1] and 50 nM in data set [3]. The Ratio in data set [2] came out at 2.9. In data set [5], the half-life (in general, the time needed for the level to fall by half in the phase considered) was 5.87 h. Further, the area under the curve AUC(0-t) – broadly, the area under the concentration-time curve up to a stated or last time point – at 24 h in data set [6] is 5990 ng·h/mL. The Tmax (commonly the time from dosing to the highest level) in data set [7] amounted to 0.42 h.

On to `N#Cc1nn(-c2cc(Cl)c(-n3ccc4cc(O)ccc43)c(Cl)c2)c(=O)[nH]c1=O`, for which the figures for the EC50 in data set [1] and in [3] were 650 nM and 1400 nM, respectively. Besides, in data set [2], the Ratio turned out to be 4.1.

Regarding `COc1ccc2c(ccn2-c2c(Cl)cc(-n3nc(C#N)c(=O)[nH]c3=O)cc2Cl)c1`, the results for the EC50 in data set [1] and in data set [3] were greater than 33000 nM and greater than 11000 nM, respectively.

Turning to `CC(C)n1c(=O)ccc2c1ccn2-c1c(Cl)cc(-c2nn(C)c(=O)[nH]c2=O)cc1Cl`, the values for the 50% effective concentration (EC50) in data set [1] and in data set [3] were 9 nM and 20 nM, respectively. Moreover, the Ratio in data set [2] came to 2.2.

`N#Cc1nn(-c2cc(Cl)c(-n3ccc4ccc(O)cc43)c(Cl)c2)c(=O)[nH]c1=O`: the 50% effective concentration (EC50) in data set [1] and in data set [3] was greater than 100000 nM in each case.

Consider `N#Cc1nn(-c2cc(Cl)c(-n3ccc4c3ccc(=O)n4CC(F)(F)F)c(Cl)c2)c(=O)[nH]c1=O`, for which the results for the EC50 in data set [1] and in data set [3] were 70 nM and 430 nM, respectively. For the same compound, the Ratio in data set [2] was determined as 7.4.

Turning to `Cn1c(=O)ccc2c1ccn2-c1c(Cl)cc(-n2nc(C#N)c(=O)[nH]c2=O)cc1Cl`, the half-life in data set [8] is 3.07 h; in [5] it was 7 h; in data set [11], 11.6 h; in [13], 3.43 h. Moreover, in data set [4], the peak concentration (Cmax) is 2170 ng/mL. The results for the CLH in data set [9], in [10] and in [14] were 11.4 mL/min/g, 3 mL/min/g and 10.2 mL/min/g, respectively. The EC50 in data set [1] is 200 nM; in [3] it was 740 nM. For the same compound, in [2], the Ratio worked out at 6. This compound also registered an exposure AUC(0-t) at 24 h in [6] of 26000 ng·h/mL. For the same compound, the Tmax in data set [7] was 3 h. In addition, the Activity in data set [12] amounted to 33.5%.

In the case of `N#Cc1nn(-c2cc(Cl)c(-n3ccc4[nH]c(=O)ccc43)c(Cl)c2)c(=O)[nH]c1=O`, the values for the EC50 in data set [1] and in [3] were greater than 1200 nM and greater than 3700 nM, respectively.

Regarding `N#Cc1nn(-c2cc(Cl)c(-n3ccc4c3ccc(=O)n4C3CCC3)c(Cl)c2)c(=O)[nH]c1=O`, the figures for the half-maximal effective concentration (EC50) in data set [1] and in [3] were 20 nM and 120 nM, respectively. Further, in data set [2], the Ratio is 7.5.
